Data as given in article PMC2680649 (International Journal of Molecular Sciences, 2009).
Where two headings read alike, the source gives them in different places.

How the values were obtained:
hER-α = target: T1, hER-α (Homo sapiens, UniProt P03372); experiment: cell-based; type: cell-based
T1 construct: expressed in transfected cells; host or cells: HELN (HeLa carrying a stably transfected estrogen-responsive luciferase reporter)

hER-β = target: T2, hER-β (Homo sapiens, UniProt Q92731); experiment: cell-based; settings: read-out: EC50, half-maximal luciferase activity, transcriptional activation through ER β
T2 construct: expressed in transfected cells; host or cells: HELN (HeLa carrying a stably transfected estrogen-responsive luciferase reporter)

human ERα = tested on: human ERα; parameters: method as in PMID 9751507; settings: cells transfected with human ERα; cited from earlier work
human ERβ = tested on: human ERβ; parameters: method as in PMID 9751507; settings: cells transfected with human ERβ; cited from earlier work
cytochrome P450 = type: in vitro ADME, rat
[1] = In vitro metabolism of zearalenone, Cynomolgus monkey liver microsomal preparation; type: in vitro ADME, Macaca fascicularis; settings: Cynomolgus monkey liver microsomes, 1 μM total P450, 50 μM ZEN, NADPH-generating system, pH 7.4, 30 min; n = 4
Description: (§1) Monkeys (Cynomolgus, Macaca fascicularis), pig (Yucatan), dog (Beagle), rabbit (New Zealand), mouse (CD-1) and rat (Sprague Dawley) liver microsomes, rat 2C Supersomes® were purchased from Gentest (BD Biosciences, NJ, USA). Pools of human livers for female or male were purchased from Xenotech (Tebu-Bio, Le Perray en Yvelines, France). Human CYP Bactosomes® were provided by Cypex (Tebu-Bio, Le Perray en Yvelines, France).

[2] = In vitro metabolism of zearalenone, mouse liver microsomal preparation; type: in vitro ADME, mouse (CD-1); settings: Mouse liver microsomes, 1 μM total P450, 50 μM ZEN, NADPH-generating system, pH 7.4, 30 min; n = 4
Description: as §1

[3] = In vitro metabolism of zearalenone, rabbit liver microsomal preparation; type: in vitro ADME, rabbit (New Zealand); settings: Rabbit liver microsomes, 1 μM total P450, 50 μM ZEN, NADPH-generating system, pH 7.4, 30 min; n = 4
Description: as §1

[4] = In vitro metabolism of zearalenone, human female liver microsomal preparation; type: in vitro ADME; settings: Human Female liver microsomes, 1 μM total P450, 50 μM ZEN, NADPH-generating system, pH 7.4, 30 min; n = 4
Description: as §1

[5] = ZEN incubation with rat liver cytosolic fraction; settings: rat liver cytosol, presence of NADPH
[6] = In vitro metabolism of zearalenone, rat liver microsomal preparation; type: in vitro ADME, rat (Sprague Dawley); settings: Rat (untreated) liver microsomes, 1 μM total P450, 50 μM ZEN, NADPH-generating system, pH 7.4, 30 min; n = 4
Description: as §1

[7] = In vitro metabolism of zearalenone, pig liver microsomal preparation; type: in vitro ADME, pig (Yucatan); settings: Pig liver microsomes, 1 μM total P450, 50 μM ZEN, NADPH-generating system, pH 7.4, 30 min; n = 4
Description: as §1

[8] = In vitro metabolism of zearalenone, human male liver microsomal preparation; type: in vitro ADME; settings: Human Male liver microsomes, 1 μM total P450, 50 μM ZEN, NADPH-generating system, pH 7.4, 30 min; n = 4
Description: as §1

[9] = In vitro metabolism of zearalenone, dog liver microsomal preparation; type: in vitro ADME, dog (Beagle); settings: Dog liver microsomes, 1 μM total P450, 50 μM ZEN, NADPH-generating system, pH 7.4, 30 min; n = 4
Description: as §1

[10] = ZEN incubation with rat liver post-mitochondrial fraction (S9)
[11] = In vitro metabolism of zearalenone, PB-treated rat liver microsomal preparation; settings: PB-treated rat liver microsomes, 1 μM total P450, 50 μM ZEN, NADPH-generating system, pH 7.4, 30 min; n = 4

T1 sequence (P03372 whole entry): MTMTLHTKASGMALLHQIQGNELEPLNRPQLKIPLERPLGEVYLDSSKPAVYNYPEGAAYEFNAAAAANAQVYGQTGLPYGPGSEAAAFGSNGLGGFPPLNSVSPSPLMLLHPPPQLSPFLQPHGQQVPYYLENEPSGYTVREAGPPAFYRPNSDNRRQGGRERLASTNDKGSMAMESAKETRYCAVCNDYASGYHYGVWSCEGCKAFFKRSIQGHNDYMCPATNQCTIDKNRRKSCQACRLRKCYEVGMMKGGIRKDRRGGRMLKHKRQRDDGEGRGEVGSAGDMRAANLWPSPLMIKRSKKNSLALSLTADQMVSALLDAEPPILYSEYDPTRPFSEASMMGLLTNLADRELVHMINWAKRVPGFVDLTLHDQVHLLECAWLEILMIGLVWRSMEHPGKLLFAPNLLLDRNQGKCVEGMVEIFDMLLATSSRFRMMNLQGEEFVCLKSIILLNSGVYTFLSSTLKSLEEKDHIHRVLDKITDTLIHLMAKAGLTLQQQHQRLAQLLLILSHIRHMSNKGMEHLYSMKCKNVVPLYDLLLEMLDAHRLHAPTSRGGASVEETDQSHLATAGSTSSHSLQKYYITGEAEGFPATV
T2 sequence (Q92731 whole entry): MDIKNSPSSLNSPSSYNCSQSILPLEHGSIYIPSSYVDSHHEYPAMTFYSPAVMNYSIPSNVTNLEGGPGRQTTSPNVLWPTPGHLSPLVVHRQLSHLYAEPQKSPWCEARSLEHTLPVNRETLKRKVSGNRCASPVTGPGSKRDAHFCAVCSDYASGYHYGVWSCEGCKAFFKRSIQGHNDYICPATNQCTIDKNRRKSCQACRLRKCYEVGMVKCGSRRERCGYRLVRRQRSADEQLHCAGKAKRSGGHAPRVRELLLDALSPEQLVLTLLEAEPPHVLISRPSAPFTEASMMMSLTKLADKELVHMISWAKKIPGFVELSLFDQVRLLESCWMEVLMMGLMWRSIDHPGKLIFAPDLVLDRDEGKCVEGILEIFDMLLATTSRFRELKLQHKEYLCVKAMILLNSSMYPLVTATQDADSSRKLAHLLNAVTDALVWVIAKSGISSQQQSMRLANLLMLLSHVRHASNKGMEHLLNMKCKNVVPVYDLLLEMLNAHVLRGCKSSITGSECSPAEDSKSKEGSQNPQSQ

Compound: C[C@H]1CCCC(=O)CCC/C=C/c2cc(O)cc(O)c2C(=O)O1 [ZEN, (3S,11E)-3,4,5,6,9,10-Hexahydro-14,16-dihydroxy-3-methyl-1H-2-benzoxacyclotetradecin-1,7(8H)-dione]
- EC50 (hER-α): 11.8 ± 1.9 nM
- EC50 (hER-β): 11.5 ± 2.5 nM
- agonist character for ERα (human ERα): full agonist
- agonist character for ERβ (human ERβ): partial agonist

Compound: [C-]#[O+] [carbon monoxide]
- effect on formation of OH-ZEN (cytochrome P450; carbon monoxide): inhibited

Compound: CC(=O)N1CCN(c2ccc(OCC3COC(Cn4ccnc4)(c4ccc(Cl)cc4Cl)O3)cc2)CC1 (stereo not shown) [ketoconazole]
- effect on formation of OH-ZEN (cytochrome P450): inhibited

Compound: C[C@H]1CCC[C@H](O)CCC/C=C/c2cc(O)cc(O)c2C(=O)O1 [α-ZOL, α-zearalenol]
- formation rate of ZEN metabolite [1]: 4.0 ± 0.4 nmoles/30 min/nmole P450
- formation rate of ZEN metabolite [2]: 41.3 ± 11.5 nmoles/30 min/nmole P450
- formation rate of ZEN metabolite [3]: 2.5 ± 0.4 nmoles/30 min/nmole P450
- formation rate of ZEN metabolite [4]: 3.3 ± 0.5 nmoles/30 min/nmole P450
- metabolite formed in cytosolic fraction [5]: formed
- formation rate of ZEN metabolite [6]: 14.7 ± 2.5 nmoles/30 min/nmole P450
- formation rate of ZEN metabolite [7]: 7.4 ± 0.6 nmoles/30 min/nmole P450
- formation rate of ZEN metabolite [8]: 3.6 ± 0.3 nmoles/30 min/nmole P450
- formation rate of ZEN metabolite [9]: 2.8 ± 0.3 nmoles/30 min/nmole P450

Compound: C[C@H]1CCC[C@H](O)CCCCCc2cc(O)cc(O)c2C(=O)O1 [α–ZAL, α-zearalanol]
- EC50 (hER-α; read-out: EC50, half-maximal luciferase activity, transcriptional activation through ER α, HELN ER-α cells, 16 h at 37 °C, maximal activity with 10 nM E2): 0.49 ± 0.9 nM

Compound: β-zearalenol [β-ZOL]
- metabolite found in post-mitochondrial incubation (fraction S9) [10]: in association with β-ZOL
- formation rate of ZEN metabolite [3]: 1.9 ± 0.4 nmoles/30 min/nmole P450
- formation rate of ZEN metabolite [4]: 0.3 ± 0.1 nmoles/30 min/nmole P450
- metabolite formed in cytosolic fraction [5]: formed
- formation rate of ZEN metabolite [7]: 10.0 ± 1.8 nmoles/30 min/nmole P450
- formation rate of ZEN metabolite [11]: 3.3 ± 0.4 nmoles/30 min/nmole P450
